The values below come from patent publication US20090270373A1, “TREATMENT OF DOWN SYNDROM WITH BENZODIAZEPINE RECEPTOR ANTAGONISTS” (Cypress Biosciences, Inc., priority 2008, published 2009).

The subject of one assay is WT mice. Nature of the assay: Novel object recognition assay (Discrimination Index) in WT mice. The format is in vivo, mouse. The method, then:
Following baseline determinations and group assignments, WT and Ts65Dn mice received intraperitoneal (i.p.) injections once/day (08:00) for the two-week duration of the drug treatment regimen (FIG. 1). Drugs were dissolved in physiological saline. Two drops of Tween 80 were used to facilitate solution formation for flumazenil. Picrotoxin was initially made up at 50× concentration in 20% ethanol and then diluted down to a […] solution with 0.4% ETOH in saline. Doses of drugs were based on previous behavioral research in mice (1 mg/kg for PTX and 10 mg/kg for flumazenil). Injections were given in a volume of 10 ml/kg. A vehicle control was run along side the treatment groups (0.4% ETOH in saline).
FIG. 1 graphically depicts the protocol. After habituation to the animal facility, mice were tested for baseline behaviors in the open-field locomotor assay (LMA)(30 min session) and the novel object recognition assay. Primary experimental groups were divided by genotype (Ts65Dn mice and wild-type control littermates). These two groups were further divided into drug treatments (vehicle, PTX and flumazenil) with a targeted n-size of 8 mice/group (24 WT and 24 Ts65Dn mice total). The group assignments were made in a semi-random process due to constraints in animal availability (staggered shipping) and choice of initial treatment groups (e-mail documentation between Bilsky laboratory and Cypress Bioscience on file). Daily morning injections began on Day 1 and went through the morning of Day 14. On Days 7/8 and 14/15 (13:00) mice were tested in the behavioral assay. Mice were kept for an additional two weeks and re-tested on Days 21/22 and 28/29 to assess the duration of the drug treatment effect.
The novel object recognition task is based on the innate tendency of rodents to differentially explore novel objects over familiar ones. The task is well validated for evaluating rodent memory and the effects of drug treatments on learning/memory performance.
Mice were trained and tested once per week, each experimental session separated by a one-week interval. Mice were submitted to daily handling sessions, and given an opportunity to habituate to an open field arena (48 cm×48 cm wide×25 cm), where they were exposed to two different objects (complex protocol), during a 5-minute training session. Objects were made from various non-porous materials that differ in shape and color. Mice were unable to climb onto the objects and the objects were generally consistent in height and volume, and were roughly symmetrical on a horizontal plane. Objects were positioned in two corners of the apparatus. To control for odor cues, the open field arena and the objects are thoroughly cleaned with 90% ethanol, dried, and ventilated for a few minutes between mice.
A 5-minute testing session was conducted 24 h after training. Here, the mice were presented with the object they had explored the previous day, and a new item (the objects being alternatively positioned in one corner or another in a balanced fashion within a given week, and from one week to another). […]

In a further assay the test system is benzodiazepine receptors. Conditions: cited from earlier work.

With `CCOC(=O)c1ncn2c1CN(C)C(=O)c1cc(F)ccc1-2` [flumazenil, 8-fluoro-5,6-dihydro-5-methyl-6-oxo-4H-imidazo[1,5-a]benzodiazepine-3-carboxylic acid ethyl ester], the “Discrimination Index (DI)” value in the assay with WT mice (Week 2 of drug therapy, versus vehicle) was “no differences”; with WT mice (Week 4 (2 weeks post dosing)) it was “slight negative DI”. Besides, the “antagonism of the effects of diazepam” value in the assay on benzodiazepine receptors (given orally or intravenously) is “effectively antagonizes”. Also, the “activity at oral dosing” value in the assay on benzodiazepine receptors (oral 30 to 100 mg, normal adult human subjects) is listed as “partial benzodiazepine agonist”.
